Laboratory results taken from patent US20130309209A1, “FORMATION OF HEMATOPOIETIC PROGENITOR CELLS FROM MESENCHYMAL STEM CELLS” (Center for Regenerative Medicine of Barcelona, priority 2010, published 2013).

Assays:
Human MSCs [1] = test: Flow cytometry surface staining (CD34, CD45, CD43, CD133) of MSCs undergoing hematopoietic transdetermination; assay type: cell-based
Excerpt: The following antibodies were used for flow cytometry and western blotting experiments respectively: mouse anti-human CD34-APC (130-046-703, Miltenyi), mouse anti-human CD45-FITC (130-080-202, Miltenyi), mouse anti-human CD133/2 (293C3)-PE (130-090-853, Miltenyi), mouse anti-human CD43-FITC (560978, BD biosciences), mouse APC isotype control (555751, BD biosciences), mouse FITC isotype control (555748, BD biosciences), The TGFβRI SB431542 (S4317, Sigma-Aldrich) and MEK/ERK U0126 (U120, Sigma-Aldrich) inhibitors were diluted in DMSO accordingly to the manufacturers' instruction and used at a final concentration of 25 and 10 μM respectively during the duration of the experiments with media changes every second day unless otherwise stated. Equal concentration of the solvent alone was used as a negative control.
Human OE-MSC and MSC-AT cells (passage 7) were infected (day 0) with pMX-based retroviruses by spinfection of the cells at 1850 rpm for 1 hour in the presence of polybrene (4 μg/ml). Cells were maintained in the retroviruses-containing media for 12 hours and then the media was removed and replaced by the cell-specific culture medium. Twenty four hours after the first infection (day 1), a second round of infection was performed. The day after (day 2), cells were maintained in their respective media for 24 hours before being switched to a Wicell media containing DMEM/F12 (Invitrogen) supplemented with 20% Knockout Serum Replacement (Invitrogen), 1 mM L-glutamine, 0.1 mM non-essential aminoacids, […] β-mercaptoethanol and 10 ng/ml bFGF.
Human MSCs undergoing hematopoietic transdetermination were harvested at the indicated time points. Cells were washed once with PBS and further incubated with the corresponding antibodies in the presence of FACS blocking buffer (1×PBS/10% FCS) for 1 hour on ice in the absence of light. After incubation, cells were washed three times with 1 ml FACS blocking buffer and resuspended in a total volume of 200 μl prior to analysis. A minimum of 10,000 living cells were analyzed.
2.5 μg of recombinant human Sox2-TAT (110-03T, Peprotech) was added to the culture media every 12 hours prior to analysis of transdetermination.

Human MSCs [2] = test: Real time PCR (RT-PCR) analysis of hematopoietic and pluripotency marker mRNA; assay type: cell-based
Procedure: Total RNA was isolated using Trizol Reagent (Invitrogen) according to the manufacturer's recommendations. 1 μg of DNAse1 (invitrogen) treated total RNA was used for cDNA synthesis using the SuperScript II Reverse Transcriptase kit for RT-PCR (Invitrogen). Real-time PCR was performed using the SYBR-Green PCR Master mix (Applied Biosystems). The levels of expression of respective genes were normalized to corresponding GAPDH values and are shown as fold change relative to the value of the control sample. All the samples were done in triplicate. The sequences correspond to SEQ ID NOs:7-68, and are listed in order, i.e., SEQ ID NO:7 (OCT4 endogenous 5′ oligo), SEQ ID NO:8 (OCT4 endogenous 3′oligo), SEQ ID NO:9 (NANOG 5′ oligo), etc.

[3] = test system: CD34+ OE-MSC-derived cells; test: Hematopoietic colony forming assays; assay type: cell-based, human; details: CD34+ cells accumulated during chronic inhibition of TGFβ
Procedure: Hematopoietic clonogenic assays were performed in 35-mm low adherent plastic dishes (Stem Cell Technologies, Vancouver, BC, Canada) using 1.1 ml/dish of methylcellulose semisolid medium (MethoCult H4434 classic, Stem Cell Technologies) according to the manufacturer's instructions. Briefly, enriched CD34+ OE-MSC-derived cells were sorted and immediately plated at various densities: 1.5×10^3/ml, 3×10^3/ml and 6×10^3/ml. All assays were performed in duplicate. Colony-forming units (CFU) and Burst-forming units (BFU) were scored after 7 to 14 days of incubation according to their colony morphology as erythroid (CFU-E and BFU-E), granulocyte, erythroid, macrophage, megakaryocyte (CFU-GEMM), granulocyte-macrophage (CFU-GM), and macrophage (CFU-M).

Human MSCs [4] = test: Western blotting of tyrosine phosphorylation of cellular proteins; assay type: cell-based; details: TGF beta inhibition added to standard transgeneration conditions
Excerpt: TGF signaling involves a series of serine/threonine phosphorylation events, and its regulation is related to the activity of the MAPK-MEK-ERK pathway, a receptor tyrosine kinase (RTK) activated pathway. Thus, in order to address potential crosstalk involving tyrosine phosphorylation-dependent pathways Applicants investigated the effect of Applicants' different protocols on tyrosine phosphorylation of multiple cellular proteins by western blotting.

Row | Compound | generation of CD34+ cells (Human MSCs [1]; Sox2 transduction in combination with TGFβRI inhibitor (FIG. 4C)) | newly generated CD45+ cells (Human MSCs [1]; Sox2 transduction in combination with TGFβRI inhibitor, days 2-8 (FIG. 4D)) | generation of CD34+CD45+ and CD45+ cell populations (Human MSCs [1]; in combination with Sox2 transduction, 4 days of transdetermination (FIG. 5E)) | CD34+CD45+ cells (Human MSCs [1]; inhibition of the TGF beta pathway alone during ten days, compared to DMSO control, 25 μM) | CD34+ cells (Human MSCs [1]; inhibition of the TGFβ pathway, no Sox2 transduction, 25 μM) | CD34+ cells (Human MSCs [1]; long-term inhibition of TGF beta pathway during a one month period in culture, compared to standard protocol) | endogenous Sox2 and Oct4 expression (Human MSCs [2]; chronic inhibition of TGFβ signaling alone (FIG. 4B)) | HPC-related markers at the mRNA level (Human MSCs [2]; chronic inhibition of TGFβ signaling alone, days 2-7 (FIG. 5C)) | early hematopoietic markers GATA2, Runx1, CD43 and CD41 (Human MSCs [2]; inhibition of TGF signaling) | endogenous Sox2 expression (Human MSCs [2]; inhibition of TGF signaling (Example 9)) | multilineage potential of sorted CD34+ cells [3] | tyrosine phosphorylation of cellular proteins (Human MSCs [4]) | early CD34+ progenitors (Human MSCs [1]; chronic inhibition of ERK alone, no ectopic Sox2, 10 μM)
1 | NC(=O)c1ccc(-c2nc(-c3ccc4c(c3)OCO4)c(-c3ccccn3)[nH]2)cc1 [SB431542] | does not impair | significant reduction | significantly abolishes | around 10% | 10-25% | up to 75% | sufficient to upregulate | significant upregulation | downregulation | downregulation | retain multilineage potential | further enhances | –
2 | N#CC(=C(/N)Sc1ccccc1N)/C(C#N)=C(\N)Sc1ccccc1N [U0126] | – | – | – | – | – | – | – | – | – | – | – | – | up to 35%
